Experimental data taken from patent US8158636B2, “Compounds and methods for kinase modulation, and indications therefor” (Plexxikon Inc., priority 2008, dated 2012).

Tests used:
Format in all cases: biochemical
Fms = Fms (Homo sapiens, UniProt P07333); test: Kinase activity assay, Fms; settings: Table 1h; read-out: activity toward kinase Fms, IC50
Source text: (§1) Assays for the activity of kinases, including, but not limited to, Fms, Kit, B-Raf, B-Raf V600E, c-Raf-1, and TrkA are known in the art, for example as described in US Patent Publication Number US20070032519 and U.S. patent application Ser. No. 11/473,347 (see also, PCT publication WO2007002433), the disclosures of which are hereby incorporated by reference with respect to such assays.

Flt-3 = biological target: T1, Flt-3 (Homo sapiens, UniProt P36888); test: Kinase activity assay, Flt-3; settings: Table 1g; read-out: activity toward kinase Flt-3, IC50
T1 sequence (P36888 27-993): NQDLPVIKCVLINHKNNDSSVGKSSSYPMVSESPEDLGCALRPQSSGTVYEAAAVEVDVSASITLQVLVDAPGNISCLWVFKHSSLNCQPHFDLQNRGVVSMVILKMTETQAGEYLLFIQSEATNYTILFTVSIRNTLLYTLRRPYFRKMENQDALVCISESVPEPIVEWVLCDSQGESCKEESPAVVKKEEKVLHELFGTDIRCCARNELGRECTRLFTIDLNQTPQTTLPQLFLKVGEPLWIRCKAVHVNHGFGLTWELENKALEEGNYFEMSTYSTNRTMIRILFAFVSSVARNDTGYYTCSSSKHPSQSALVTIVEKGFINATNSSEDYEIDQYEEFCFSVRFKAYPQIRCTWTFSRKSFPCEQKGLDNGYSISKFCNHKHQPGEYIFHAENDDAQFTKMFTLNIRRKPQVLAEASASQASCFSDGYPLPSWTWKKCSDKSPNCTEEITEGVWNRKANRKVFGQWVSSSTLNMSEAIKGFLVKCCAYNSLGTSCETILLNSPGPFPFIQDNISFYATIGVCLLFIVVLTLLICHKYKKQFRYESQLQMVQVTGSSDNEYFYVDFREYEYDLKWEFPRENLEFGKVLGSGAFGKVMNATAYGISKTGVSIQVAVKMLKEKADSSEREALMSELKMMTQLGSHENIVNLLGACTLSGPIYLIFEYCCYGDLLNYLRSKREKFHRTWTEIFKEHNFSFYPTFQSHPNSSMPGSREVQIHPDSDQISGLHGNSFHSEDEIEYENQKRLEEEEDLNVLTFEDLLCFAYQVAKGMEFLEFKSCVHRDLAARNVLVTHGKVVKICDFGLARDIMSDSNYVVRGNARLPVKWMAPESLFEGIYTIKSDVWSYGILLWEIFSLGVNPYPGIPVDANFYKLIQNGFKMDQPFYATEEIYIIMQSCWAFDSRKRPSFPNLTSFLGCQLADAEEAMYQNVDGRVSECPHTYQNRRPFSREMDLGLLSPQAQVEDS
Source text: as §1

Src = Src (Homo sapiens, UniProt P12931); test: Kinase activity assay, Src; settings: Table 1k; read-out: activity toward kinase Src, IC50
Source text: as §1

Kdr = Kdr (Homo sapiens, UniProt P35968); test: Kinase activity assay, Kdr; settings: Table 1i; read-out: activity toward kinase Kdr, IC50
Source text: as §1

TrkA = TrkA (Homo sapiens, UniProt P04629); test: Kinase activity assay, TrkA; settings: Table 1m; read-out: activity toward kinase TrkA, IC50
Source text: as §1

Kit = Kit (Homo sapiens, UniProt P10721); test: Kinase activity assay, Kit; settings: Table 1j; read-out: activity toward kinase Kit, IC50
Source text: as §1

A-Raf = biological target: T2, A-Raf (Homo sapiens, UniProt P10398); test: Kinase activity assay, A-Raf; settings: Table 1a; read-out: activity toward kinase A-Raf, IC50
T2 sequence (P10398 1-606): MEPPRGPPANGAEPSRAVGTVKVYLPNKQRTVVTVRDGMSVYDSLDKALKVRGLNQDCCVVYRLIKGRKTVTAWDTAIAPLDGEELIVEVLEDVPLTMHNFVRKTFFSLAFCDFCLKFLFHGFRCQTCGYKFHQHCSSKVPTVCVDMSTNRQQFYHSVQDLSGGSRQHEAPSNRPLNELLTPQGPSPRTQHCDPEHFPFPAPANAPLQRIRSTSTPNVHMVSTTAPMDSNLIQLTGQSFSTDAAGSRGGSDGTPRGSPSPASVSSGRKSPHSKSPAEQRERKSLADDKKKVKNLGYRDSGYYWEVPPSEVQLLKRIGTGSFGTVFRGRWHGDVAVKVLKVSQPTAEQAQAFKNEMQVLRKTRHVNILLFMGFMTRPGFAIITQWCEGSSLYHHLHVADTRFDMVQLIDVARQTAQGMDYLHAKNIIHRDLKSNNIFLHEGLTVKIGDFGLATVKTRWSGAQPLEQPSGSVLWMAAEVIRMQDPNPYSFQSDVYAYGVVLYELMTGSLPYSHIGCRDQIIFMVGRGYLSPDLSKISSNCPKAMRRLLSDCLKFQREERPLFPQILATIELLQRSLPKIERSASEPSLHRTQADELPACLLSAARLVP
Source text: as §1

B-Raf V600E = B-Raf V600E (Homo sapiens, UniProt P15056, V600E); test: Kinase activity assay, B-Raf V600E; settings: Table 1c; read-out: activity toward kinase B-Raf V600E, IC50
Source text: as §1

B-Raf = B-Raf (Homo sapiens, UniProt P15056); test: Kinase activity assay, B-Raf; settings: Table 1b; read-out: activity toward kinase B-Raf, IC50
Source text: as §1

C-Raf = C-Raf (Homo sapiens, UniProt P04049); test: Kinase activity assay, C-Raf; settings: Table 1d; read-out: activity toward kinase C-Raf, IC50
Source text: as §1

Btk = Btk (Homo sapiens, UniProt Q06187); test: Kinase activity assay, Btk; settings: Table 1e; read-out: activity toward kinase Btk, IC50
Source text: as §1

Measured: IC50

Chain of Fms (P07333 20-972): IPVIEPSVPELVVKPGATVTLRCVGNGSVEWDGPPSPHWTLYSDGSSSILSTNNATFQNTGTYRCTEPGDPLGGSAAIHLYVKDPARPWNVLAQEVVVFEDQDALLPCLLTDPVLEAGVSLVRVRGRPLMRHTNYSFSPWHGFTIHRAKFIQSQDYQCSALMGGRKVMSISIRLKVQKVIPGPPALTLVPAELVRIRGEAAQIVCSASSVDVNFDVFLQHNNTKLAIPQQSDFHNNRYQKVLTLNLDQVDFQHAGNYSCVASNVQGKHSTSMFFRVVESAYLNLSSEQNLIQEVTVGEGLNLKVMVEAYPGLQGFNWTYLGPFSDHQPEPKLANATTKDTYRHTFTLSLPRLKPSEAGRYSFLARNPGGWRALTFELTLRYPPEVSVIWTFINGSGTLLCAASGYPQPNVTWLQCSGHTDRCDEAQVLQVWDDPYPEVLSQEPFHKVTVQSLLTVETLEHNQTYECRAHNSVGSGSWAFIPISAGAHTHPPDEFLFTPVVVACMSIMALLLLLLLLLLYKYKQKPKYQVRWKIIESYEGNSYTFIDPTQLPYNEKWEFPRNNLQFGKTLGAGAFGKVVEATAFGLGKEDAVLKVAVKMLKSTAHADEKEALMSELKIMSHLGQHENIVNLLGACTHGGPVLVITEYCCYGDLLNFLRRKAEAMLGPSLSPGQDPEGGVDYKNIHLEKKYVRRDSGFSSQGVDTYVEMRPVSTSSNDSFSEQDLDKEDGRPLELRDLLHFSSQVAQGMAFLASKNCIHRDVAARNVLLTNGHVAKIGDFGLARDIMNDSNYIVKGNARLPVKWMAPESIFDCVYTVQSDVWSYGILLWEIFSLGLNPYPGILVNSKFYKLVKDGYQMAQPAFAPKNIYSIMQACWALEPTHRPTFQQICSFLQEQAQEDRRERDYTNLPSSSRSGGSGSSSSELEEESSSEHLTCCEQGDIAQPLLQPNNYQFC
Chain of TrkA (P04629 33-796): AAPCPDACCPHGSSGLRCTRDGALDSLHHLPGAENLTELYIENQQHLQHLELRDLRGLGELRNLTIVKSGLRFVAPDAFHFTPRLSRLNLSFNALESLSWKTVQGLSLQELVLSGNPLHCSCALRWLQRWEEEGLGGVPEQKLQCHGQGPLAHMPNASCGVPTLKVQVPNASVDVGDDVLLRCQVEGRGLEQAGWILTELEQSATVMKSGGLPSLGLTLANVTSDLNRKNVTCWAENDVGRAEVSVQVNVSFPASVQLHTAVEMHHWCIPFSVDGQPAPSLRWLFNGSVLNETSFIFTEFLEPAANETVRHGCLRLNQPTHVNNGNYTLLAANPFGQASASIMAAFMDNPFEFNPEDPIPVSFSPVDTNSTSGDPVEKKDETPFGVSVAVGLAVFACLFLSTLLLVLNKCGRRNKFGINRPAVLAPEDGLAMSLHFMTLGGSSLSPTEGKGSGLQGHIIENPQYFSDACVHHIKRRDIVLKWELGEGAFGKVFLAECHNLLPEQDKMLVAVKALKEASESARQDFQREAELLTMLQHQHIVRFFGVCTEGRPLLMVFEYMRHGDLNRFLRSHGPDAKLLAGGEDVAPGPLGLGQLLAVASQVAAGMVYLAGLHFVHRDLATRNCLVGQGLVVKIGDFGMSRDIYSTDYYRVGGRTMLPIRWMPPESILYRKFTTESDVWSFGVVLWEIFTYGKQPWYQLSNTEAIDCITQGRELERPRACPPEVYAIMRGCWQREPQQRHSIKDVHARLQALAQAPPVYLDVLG
Chain of Src (P12931 whole entry): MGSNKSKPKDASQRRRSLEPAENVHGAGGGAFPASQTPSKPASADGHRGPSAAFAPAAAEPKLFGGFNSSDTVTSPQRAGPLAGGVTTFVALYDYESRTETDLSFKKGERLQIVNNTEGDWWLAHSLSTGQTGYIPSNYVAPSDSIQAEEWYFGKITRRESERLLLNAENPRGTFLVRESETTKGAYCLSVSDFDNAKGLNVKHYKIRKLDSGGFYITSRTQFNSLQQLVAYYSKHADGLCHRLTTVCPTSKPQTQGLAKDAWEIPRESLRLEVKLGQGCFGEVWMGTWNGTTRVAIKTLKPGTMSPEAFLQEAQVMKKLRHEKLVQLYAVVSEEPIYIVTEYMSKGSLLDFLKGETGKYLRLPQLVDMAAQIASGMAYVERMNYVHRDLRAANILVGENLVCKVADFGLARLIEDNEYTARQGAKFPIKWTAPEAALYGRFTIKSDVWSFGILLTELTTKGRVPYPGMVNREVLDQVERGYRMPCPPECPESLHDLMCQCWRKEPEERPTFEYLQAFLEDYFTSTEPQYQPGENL
Chain of C-Raf (P04049 whole entry): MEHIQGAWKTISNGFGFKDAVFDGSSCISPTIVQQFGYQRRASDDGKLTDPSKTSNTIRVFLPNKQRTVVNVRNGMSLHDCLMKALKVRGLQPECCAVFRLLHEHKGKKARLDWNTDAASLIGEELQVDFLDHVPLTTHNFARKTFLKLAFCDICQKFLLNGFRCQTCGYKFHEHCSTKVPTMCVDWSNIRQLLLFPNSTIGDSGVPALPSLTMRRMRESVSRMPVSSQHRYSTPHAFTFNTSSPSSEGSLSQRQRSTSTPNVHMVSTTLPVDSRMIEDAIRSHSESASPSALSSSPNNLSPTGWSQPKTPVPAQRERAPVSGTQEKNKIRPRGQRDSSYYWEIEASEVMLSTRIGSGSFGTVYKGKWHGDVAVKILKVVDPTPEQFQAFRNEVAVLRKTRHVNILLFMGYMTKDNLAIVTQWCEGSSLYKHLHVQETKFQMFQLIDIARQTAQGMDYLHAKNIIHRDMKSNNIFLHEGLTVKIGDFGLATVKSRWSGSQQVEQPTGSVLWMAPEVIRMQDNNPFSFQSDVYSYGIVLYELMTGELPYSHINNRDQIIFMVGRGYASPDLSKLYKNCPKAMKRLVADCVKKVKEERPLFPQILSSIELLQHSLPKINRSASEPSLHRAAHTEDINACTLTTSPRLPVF
Chain of Kit (P10721 26-976): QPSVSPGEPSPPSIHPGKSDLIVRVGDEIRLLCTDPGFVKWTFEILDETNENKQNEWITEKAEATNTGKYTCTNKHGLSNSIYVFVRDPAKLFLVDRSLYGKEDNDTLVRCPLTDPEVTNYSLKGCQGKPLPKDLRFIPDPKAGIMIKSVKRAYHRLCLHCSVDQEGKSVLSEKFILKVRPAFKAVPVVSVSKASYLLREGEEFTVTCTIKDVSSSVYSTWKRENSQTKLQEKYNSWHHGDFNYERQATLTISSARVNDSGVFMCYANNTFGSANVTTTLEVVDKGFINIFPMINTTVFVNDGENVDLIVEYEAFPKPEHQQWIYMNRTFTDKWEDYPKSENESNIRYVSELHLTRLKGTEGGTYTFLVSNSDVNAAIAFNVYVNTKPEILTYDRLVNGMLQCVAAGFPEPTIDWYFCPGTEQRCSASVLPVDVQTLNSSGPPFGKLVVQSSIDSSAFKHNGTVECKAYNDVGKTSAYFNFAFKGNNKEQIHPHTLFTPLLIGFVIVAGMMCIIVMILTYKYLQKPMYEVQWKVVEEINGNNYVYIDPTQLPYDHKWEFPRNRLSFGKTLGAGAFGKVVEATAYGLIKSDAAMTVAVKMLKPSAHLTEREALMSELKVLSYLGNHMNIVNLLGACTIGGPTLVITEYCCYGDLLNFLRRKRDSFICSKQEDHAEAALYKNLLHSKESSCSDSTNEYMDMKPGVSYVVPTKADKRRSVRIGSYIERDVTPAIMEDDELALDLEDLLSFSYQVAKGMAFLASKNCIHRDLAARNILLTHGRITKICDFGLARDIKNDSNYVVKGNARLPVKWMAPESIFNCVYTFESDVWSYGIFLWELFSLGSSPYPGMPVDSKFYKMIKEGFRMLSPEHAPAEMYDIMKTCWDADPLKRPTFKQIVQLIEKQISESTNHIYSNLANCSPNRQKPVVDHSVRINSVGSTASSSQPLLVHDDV
Chain of B-Raf V600E (P15056 whole entry V600E): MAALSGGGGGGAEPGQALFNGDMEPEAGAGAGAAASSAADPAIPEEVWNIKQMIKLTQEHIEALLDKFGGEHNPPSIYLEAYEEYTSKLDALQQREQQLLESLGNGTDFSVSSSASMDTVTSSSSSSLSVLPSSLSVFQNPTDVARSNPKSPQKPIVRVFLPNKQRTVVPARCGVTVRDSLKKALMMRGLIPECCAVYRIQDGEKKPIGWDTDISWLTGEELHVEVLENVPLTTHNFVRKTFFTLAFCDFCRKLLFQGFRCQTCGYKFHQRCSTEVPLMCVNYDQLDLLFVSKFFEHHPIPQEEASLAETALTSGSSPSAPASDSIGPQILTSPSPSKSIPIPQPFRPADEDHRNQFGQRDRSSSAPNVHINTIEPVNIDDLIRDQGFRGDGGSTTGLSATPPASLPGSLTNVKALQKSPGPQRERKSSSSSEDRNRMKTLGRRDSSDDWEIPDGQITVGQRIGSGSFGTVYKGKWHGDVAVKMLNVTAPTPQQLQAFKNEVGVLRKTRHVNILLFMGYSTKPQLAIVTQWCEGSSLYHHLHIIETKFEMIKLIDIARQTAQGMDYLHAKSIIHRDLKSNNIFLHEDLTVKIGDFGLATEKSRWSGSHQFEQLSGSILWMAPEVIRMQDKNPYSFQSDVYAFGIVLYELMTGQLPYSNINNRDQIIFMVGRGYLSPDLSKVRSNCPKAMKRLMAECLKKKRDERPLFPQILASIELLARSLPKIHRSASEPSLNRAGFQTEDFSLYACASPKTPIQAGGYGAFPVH
Chain of B-Raf (P15056 whole entry): as the sequence (P15056 whole entry V600E) above, with E600V counted along it

Fc1nc(NCc2ccccc2Cl)ccc1Cc1c[nH]c2ncncc12 [P-0005, (2-Chloro-benzyl)-[6-fluoro-5-(7H-pyrrolo[2,3-d]pyrimidin-5-ylmethyl)-pyridin-2-yl]-amine]
≤ 10 µM: Fms | Flt-3 | Src | Kdr | TrkA | Kit

Fc1nc(NCc2ccc(C(F)(F)F)nc2)ccc1Cc1c[nH]c2ncncc12 [P-0007, [6-Fluoro-5-(7H-pyrrolo[2,3-d]pyrimidin-5-ylmethyl)-pyridin-2-yl]-(6-trifluoromethyl-pyridin-3-ylmethyl)-amine]
not listed: Src | B-Raf | C-Raf | Btk
≤ 10 µM: all other assays above

COc1ncc(F)cc1CNc1ccc(Cc2c[nH]c3ncncc23)c(F)n1 [P-0011, (5-Fluoro-2-methoxy-pyridin-3-ylmethyl)-[6-fluoro-5-(7H-pyrrolo[2,3-d]pyrimidin-5-ylmethyl)-pyridin-2-yl]-amine]
≤ 10 µM: Fms | Flt-3 | A-Raf | Kdr | TrkA | Kit

COc1ccc(CNc2ccc(Cc3c[nH]c4ncnc(OC)c34)cn2)cn1 [P-0013, (6-Methoxy-pyridin-3-ylmethyl)-[5-(4-methoxy-7H-pyrrolo[2,3-d]pyrimidin-5-ylmethyl)-pyridin-2-yl]-amine]
not listed: Src | TrkA | C-Raf | Btk
≤ 10 µM: all other assays above

COc1ncnc2[nH]cc(Cc3ccc(NCc4ccccc4Cl)nc3)c12 [P-0014, (2-Chloro-benzyl)-[5-(4-methoxy-7H-pyrrolo[2,3-d]pyrimidin-5-ylmethyl)-pyridin-2-yl]-amine]
not listed: TrkA | B-Raf | C-Raf | Btk
≤ 10 µM: all other assays above

CC(C)c1ncc(CNc2ccc(Cc3c[nH]c4ncncc34)c(F)n2)cn1 [P-0079, [6-Fluoro-5-(7H-pyrrolo[2,3-d]pyrimidin-5-ylmethyl)-pyridin-2-yl]-(2-isopropyl-pyrimidin-5-ylmethyl)-amine]
≤ 10 µM: Fms | Src | Kdr

Fc1nc(NCc2cccnc2OC2CCCCC2)ccc1Cc1c[nH]c2ncncc12 [P-0088, (2-Cyclohexyloxy-pyridin-3-ylmethyl)-[6-fluoro-5-(7H-pyrrolo[2,3-d]pyrimidin-5-ylmethyl)-pyridin-2-yl]-amine]
not listed: Flt-3 | TrkA | A-Raf | Btk
≤ 10 µM: all other assays above

Fc1nc(NCc2ccc(N3CCCC3)cn2)ccc1Cc1c[nH]c2ncncc12 [P-0089, [6-Fluoro-5-(7H-pyrrolo[2,3-d]pyrimidin-5-ylmethyl)-pyridin-2-yl]-(5-pyrrolidin-1-yl-pyridin-2-ylmethyl)-amine]
≤ 10 µM: Fms | Src | Kdr | B-Raf V600E | Kit

COc1ncnc2[nH]cc(Cc3ccc(NCc4ccccc4Cl)nc3F)c12 [P-0090, (2-Chloro-benzyl)-[6-fluoro-5-(4-methoxy-7H-pyrrolo[2,3-d]pyrimidin-5-ylmethyl)-pyridin-2-yl]-amine]
≤ 10 µM: Fms | Src | TrkA | Kit

COc1ncc(CNc2ncc(Cc3c[nH]c4ncnc(OC)c34)cn2)cc1F [P-0092, (5-Fluoro-6-methoxy-pyridin-3-ylmethyl)-[5-(4-methoxy-7H-pyrrolo[2,3-d]pyrimidin-5-ylmethyl)-pyrimidin-2-yl]-amine]
≤ 10 µM: Fms | Src | C-Raf | Kit

COc1ncnc2[nH]cc(Cc3ccc(NCc4cnccc4C(F)(F)F)nc3F)c12 [P-0095, [6-Fluoro-5-(4-methoxy-7H-pyrrolo[2,3-d]pyrimidin-5-ylmethyl)-pyridin-2-yl]-(4-trifluoromethyl-pyridin-3-ylmethyl)-amine]
≤ 10 µM: Fms | Src | B-Raf V600E | TrkA | Kit

COc1ncccc1CNc1ccc(Cc2c[nH]c3ncnc(OC)c23)c(F)n1 [P-0097, [6-Fluoro-5-(4-methoxy-7H-pyrrolo[2,3-d]pyrimidin-5-ylmethyl)-pyridin-2-yl]-(2-methoxy-pyridin-3-ylmethyl)-amine]
≤ 10 µM: Fms | Src | TrkA | Kit

COc1ncnc2[nH]cc(Cc3cnc(NCc4cncc(F)c4)nc3)c12 [P-0098, (5-Fluoro-pyridin-3-ylmethyl)-[5-(4-methoxy-7H-pyrrolo[2,3-d]pyrimidin-5-ylmethyl)-pyrimidin-2-yl]-amine]
≤ 10 µM: Btk | Fms | TrkA | Kit

COc1ncnc2[nH]cc(Cc3ccc(NCc4ccc(C(F)(F)F)nc4)nc3)c12 [P-0100, [5-(4-Methoxy-7H-pyrrolo[2,3-d]pyrimidin-5-ylmethyl)-pyridin-2-yl]-(6-trifluoromethyl-pyridin-3-ylmethyl)-amine]
not listed: Flt-3 | Src | A-Raf | Btk
≤ 10 µM: all other assays above

COc1ncnc2[nH]cc(Cc3cnc(NCc4ccc(C(F)(F)F)nc4)nc3)c12 [P-0102, [5-(4-Methoxy-7H-pyrrolo[2,3-d]pyrimidin-5-ylmethyl)-pyrimidin-2-yl]-(6-trifluoromethyl-pyridin-3-ylmethyl)-amine]
not listed: Flt-3 | Src | A-Raf | Btk
≤ 10 µM: all other assays above

COc1ncnc2[nH]cc(Cc3cnc(NCc4ccc(C(F)(F)F)nc4)c(F)c3)c12 [P-0103, [3-Fluoro-5-(4-methoxy-7H-pyrrolo[2,3-d]pyrimidin-5-ylmethyl)-pyridin-2-yl]-(6-trifluoromethyl-pyridin-3-ylmethyl)-amine]
not listed: Flt-3 | Src | A-Raf | Btk
≤ 10 µM: all other assays above
